Molecular target: T1, KRAS G12D (Homo sapiens, UniProt P01116, G12D)
T1 construct: AsPc-1-KRAS (G12D)-HiBit-KI cell (Pharmaron); host or cells: AsPc-1-KRAS (G12D)-HiBit-KI cells (HiBiT knock-in at the endogenous KRAS locus)
Assay: KRAS G12D HiBit assay
Assay type: cell-based
Conditions: AsPc-1-KRAS (G12D)-HiBit-KI cell, compound treatment for 24 hours, absolute DC50; class symbols
Experimental: Day 1. […] Allowed cells to reach approximately 80% confluence before splitting. Rinsed cultivated cells in T-75 flasks with 5 mL PBS (Solarbio, P1020-500). […] Inactivated trypsin by adding excessive serum containing medium. Harvested the cells from flask into cell culture medium and counted the cell number.
Day 2. Test compounds were dissolved at 0.3 mM in DMSO (Solarbio, D8371) as stock solution. […] Performed 3-fold, 10-points dilution via transferring 15 μL compound into 30 μL DMSO by using TECAN liquid handler (TECAN, Freedom EVO200).
Day 3. After compound treatment for 24 hours, removed the plate from incubators and equilibrated at room temperature for 15 minutes. Prepared the HiBit reagent (Promega, N3040) by mixing 10 mL of Nano-Glo®-HiBiT Lytic Buffer with 200 μL of Nano-Glo®-HiBiT Lytic Substrate and 100 μL of LgBiT Protein. Added 20 μL of HiBit reagent into each well of the cell plate and spun the plates at room temperature at 1,000 RPM for 1 minute.
The inhibition activity was calculated using the following formula:
(§1) [formula] where HC (high control) is obtained from cells treated with 0.1% DMSO only.

T1 sequence (P01116 1-188 isoform P01116-2 G12D): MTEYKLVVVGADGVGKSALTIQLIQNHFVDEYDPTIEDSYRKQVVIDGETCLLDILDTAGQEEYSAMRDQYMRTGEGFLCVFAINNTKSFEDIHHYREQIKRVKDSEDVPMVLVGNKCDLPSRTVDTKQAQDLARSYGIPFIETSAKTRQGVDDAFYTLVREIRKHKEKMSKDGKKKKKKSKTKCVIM

| Compound | DC50 [nM] |
| --- | --- |
| C#Cc1c(F)ccc2cccc(-c3ncc4c(N5CCC[C@@](C)(O)C5)nc(OCC5(CN6CCN(Cc7cccc8c7n(C)c(=O)n8C7CCC(=O)NC7=O)CC6)CC5)nc4c3F)c12 (stereo partly drawn) [Compound 61] | > 300 |
| C#Cc1c(F)ccc2cccc(-c3ncc4c(N5CCC[C@@](C)(O)C5)nc(OCC5(CN6CCC7(CCC(c8cccc9c8n(C)c(=O)n9C8CCC(=O)NC8=O)CC7)CC6)CC5)nc4c3F)c12 (stereo partly drawn) [Compound 66] | > 300 |
| C#Cc1c(F)ccc2cc(O)cc(-c3ncc4c(N5CCC[C@@](C)(O)C5)nc(OCC5(CN6CCC(N7CCC(c8cccc9c8n(C)c(=O)n9C8CCC(=O)NC8=O)CC7)CC6)CC5)nc4c3F)c12 (stereo partly drawn) [Compound 85] | < 100 |
| C#Cc1c(F)ccc2cccc(-c3ncc4c(N5CCC[C@@](C)(O)C5)nc(OC[C@@]56CCCN5[C@H](COC(=O)NCCOCCOc5ccc7c(c5)n(C)c(=O)n7C5CCC(=O)NC5=O)CC6)nc4c3F)c12 (stereo partly drawn) [Compound 107] | > 300 |
| C#Cc1c(F)ccc2cccc(-c3ncc4c(N5CCC[C@@](C)(O)C5)nc(OC[C@@]56CCCN5[C@H](COC(=O)NCCOCCOCCOc5ccc7c(c5)n(C)c(=O)n7C5CCC(=O)NC5=O)CC6)nc4c3F)c12 (stereo partly drawn) [Compound 108, ((3S,7aS)-7a-(((7-(8-ethynyl-7-fluoronaphthalen-1-yl)-8-fluoro-4-((R)-3-hydroxy-3-methylpiperidin-1-yl)pyrido[4,3-d]pyrimidin-2-yl)oxy)methyl)hexahydro-1H-pyrrolizin-3-yl)methyl (2-(2-(2-((1-(2,6-dioxopiperidin-3-yl)-3-methyl-2-oxo-2,3-dihydro-1H-benzo[d]imidazol-5-yl)oxy)ethoxy)ethoxy)ethyl) carbamate] | > 300 |
| C#Cc1c(F)ccc2cccc(-c3ncc4c(N5CCC[C@@](C)(O)C5)nc(OC[C@@]56CCCN5[C@H](COC(=O)NCCOCCOCCOCCOc5ccc7c(c5)n(C)c(=O)n7C5CCC(=O)NC5=O)CC6)nc4c3F)c12 (stereo partly drawn) [Compound 109, ((3S,7aS)-7a-(((7-(8-ethynyl-7-fluoronaphthalen-1-yl)-8-fluoro-4-((R)-3-hydroxy-3-methylpiperidin-1-yl)pyrido[4,3-d]pyrimidin-2-yl)oxy)methyl)hexahydro-1H-pyrrolizin-3-yl)methyl (2-(2-(2-(2-((1-(2,6-dioxopiperidin-3-yl)-3-methyl-2-oxo-2,3-dihydro-1H-benzo[d]imidazol-5-yl)oxy)ethoxy)ethoxy)ethoxy)ethyl) carbamate] | > 300 |
| CCc1c(F)ccc2cc(O)cc(-c3ncc4c(N5CCC[C@@](C)(O)C5)nc(OC[C@@]56CCCN5[C@H](COC(=O)NCCOCCOc5ccc7c(c5)n(C)c(=O)n7C5CCC(=O)NC5=O)CC6)nc4c3F)c12 (stereo partly drawn) [Compound 112, ((3S,7aS)-7a-(((7-(8-ethyl-7-fluoro-3-hydroxynaphthalen-1-yl)-8-fluoro-4-((R)-3-hydroxy-3-methylpiperidin-1-yl)pyrido[4,3-d]pyrimidin-2-yl)oxy)methyl)hexahydro-1H-pyrrolizin-3-yl)methyl (2-(2-((1-(2,6-dioxopiperidin-3-yl)-3-methyl-2-oxo-2,3-dihydro-1H-benzo[d]imidazol-5-yl)oxy)ethoxy)ethyl) carbamate] | > 300 |
| CCc1c(F)ccc2cc(O)cc(-c3ncc4c(N5CCC[C@@](C)(O)C5)nc(OC[C@@]56CCCN5[C@H](COC(=O)NCCOCCOCCOc5ccc7c(c5)n(C)c(=O)n7C5CCC(=O)NC5=O)CC6)nc4c3F)c12 (stereo partly drawn) [Compound 113, ((3S,7aS)-7a-(((7-(8-Ethyl-7-fluoro-3-hydroxynaphthalen-1-yl)-8-fluoro-4-((R)-3-hydroxy-3-methylpiperidin-1-yl)pyrido[4,3-d]pyrimidin-2-yl)oxy)methyl)hexahydro-1H-pyrrolizin-3-yl)methyl (2-(2-(2-((1-(2,6-dioxopiperidin-3-yl)-3-methyl-2-oxo-2,3-dihydro-1H-benzo[d]imidazol-5-yl)oxy)ethoxy)ethoxy)ethyl) carbamate] | > 300 |
| C#Cc1c(F)ccc2cc(O)cc(-c3ncc4c(N5CCC[C@@](C)(O)C5)nc(OC[C@@]56CCCN5[C@H](COC(=O)NCCOCCOc5ccc7c(c5)n(C)c(=O)n7C5CCC(=O)NC5=O)CC6)nc4c3F)c12 (stereo partly drawn) [Compound 114, ((3S,7aS)-7a-(((7-(8-Ethynyl-7-fluoro-3-hydroxynaphthalen-1-yl)-8-fluoro-4-((R)-3-hydro-xy-3-methylpiperidin-1-yl)pyrido[4,3-d]pyrimidin-2-yl)oxy)methyl)hexahydro-1H-pyrrolizin-3-yl)methyl (2-(2-((1-(2,6-dioxopiperidin-3-yl)-3-methyl-2-oxo-2,3-dihydro-1H-benzo[d]imidazol-5-yl)oxy)ethoxy)ethyl) carbamate] | > 300 |
| C#Cc1c(F)ccc2cc(O)cc(-c3ncc4c(N5CCC[C@@](C)(O)C5)nc(OC[C@@]56CCCN5[C@H](COC(=O)NCCOCCOCCOc5ccc7c(c5)n(C)c(=O)n7C5CCC(=O)NC5=O)CC6)nc4c3F)c12 (stereo partly drawn) [Compound 115, ((3S,7aS)-7a-(((7-(8-ethynyl-7-fluoro-3-hydroxynaphthalen-1-yl)-8-fluoro-4-((R)-3-hydroxy-3-methylpiperidin-1-yl)pyrido[4,3-d]pyrimidin-2-yl)oxy)methyl)hexahydro-1H-pyrrolizin-3-yl)methyl (2-(2-(2-((1-(2,6-dioxopiperidin-3-yl)-3-methyl-2-oxo-2,3-dihydro-1H-benzo[d]imidazol-5-yl)oxy)ethoxy)ethoxy)ethyl) carbamate] | > 300 |
| C#Cc1c(F)ccc2cccc(-c3ncc4c(N5CCC[C@@](C)(O)C5)nc(OC[C@@]56CCCN5[C@H](COC(=O)N5CCC(CN7CCC(c8ccc9c(c8)n(C8CCC(=O)NC8=O)c(=O)n9C)CC7)CC5)CC6)nc4c3F)c12 (stereo partly drawn) [Compound 136] | > 300 |

Same assay, conditions: AsPc-1-KRAS (G12D)-HiBit-KI cell, compound treatment for 24 hours, absolute DC50; numeric bounds given in place of class symbols

| Compound | DC50 [nM] |
| --- | --- |
| C#Cc1c(F)ccc2cccc(-c3ncc4c(N5CCC[C@@](C)(O)C5)nc(OC5CCN(CC(=O)N6CCC7(CC6)CC(N6CCC(c8ccc9c(c8)n(C)c(=O)n9C8CCC(=O)NC8=O)CC6)C7)CC5)nc4c3F)c12 (stereo partly drawn) [Compound 87] | > 100 |

Same assay, conditions: AsPc-1-KRAS (G12D)-HiBit-KI cell, compound treatment for 24 hours; class symbols

| Compound | Dmax [%] |
| --- | --- |
| C#Cc1c(F)ccc2cccc(-c3ncc4c(N5CCC[C@@](C)(O)C5)nc(OC[C@@]56CCCN5[C@H](COC(=O)NCCOCCOc5ccc7c(c5)n(C)c(=O)n7C5CCC(=O)NC5=O)CC6)nc4c3F)c12 (stereo partly drawn) [Compound 107] | 15 to 50 |
| C#Cc1c(F)ccc2cccc(-c3ncc4c(N5CCC[C@@](C)(O)C5)nc(OC[C@@]56CCCN5[C@H](COC(=O)NCCOCCOCCOc5ccc7c(c5)n(C)c(=O)n7C5CCC(=O)NC5=O)CC6)nc4c3F)c12 (stereo partly drawn) [Compound 108, ((3S,7aS)-7a-(((7-(8-ethynyl-7-fluoronaphthalen-1-yl)-8-fluoro-4-((R)-3-hydroxy-3-methylpiperidin-1-yl)pyrido[4,3-d]pyrimidin-2-yl)oxy)methyl)hexahydro-1H-pyrrolizin-3-yl)methyl (2-(2-(2-((1-(2,6-dioxopiperidin-3-yl)-3-methyl-2-oxo-2,3-dihydro-1H-benzo[d]imidazol-5-yl)oxy)ethoxy)ethoxy)ethyl) carbamate] | 15 to 50 |
| C#Cc1c(F)ccc2cccc(-c3ncc4c(N5CCC[C@@](C)(O)C5)nc(OC[C@@]56CCCN5[C@H](COC(=O)NCCOCCOCCOCCOc5ccc7c(c5)n(C)c(=O)n7C5CCC(=O)NC5=O)CC6)nc4c3F)c12 (stereo partly drawn) [Compound 109, ((3S,7aS)-7a-(((7-(8-ethynyl-7-fluoronaphthalen-1-yl)-8-fluoro-4-((R)-3-hydroxy-3-methylpiperidin-1-yl)pyrido[4,3-d]pyrimidin-2-yl)oxy)methyl)hexahydro-1H-pyrrolizin-3-yl)methyl (2-(2-(2-(2-((1-(2,6-dioxopiperidin-3-yl)-3-methyl-2-oxo-2,3-dihydro-1H-benzo[d]imidazol-5-yl)oxy)ethoxy)ethoxy)ethoxy)ethyl) carbamate] | 15 to 50 |

Molecular target: T2, KRAS G12V (Homo sapiens, UniProt P01116, G12V)
T2 construct: SW620-KRAS (G12V)-HiBit-KI cell (Pharmaron); host or cells: SW620-KRAS (G12V)-HiBit-KI cells (HiBiT knock-in at the endogenous KRAS locus)
Assay: KRAS G12V HiBit assay
Assay type: cell-based
Conditions: SW620-KRAS (G12V)-HiBit-KI cells, compound treatment for 24 hours, class symbols
Experimental: Day 1. […] Rinsed cultivated cells in T-75 flasks with 5 mL PBS (Solarbio, P1020-500). […] Inactivated trypsin by adding excessive serum containing medium. Harvested the cells from flask into cell culture medium and counted the cell number.
Day 2. Test compounds were dissolved at 0.3 mM in DMSO (Solarbio, D8371) as stock solution. […] Performed 3-fold, 10-points dilution via transferring 15 μL compound into 30 μL DMSO by using TECAN liquid handler (TECAN, Freedom EVO200). […] After compound treatment for 24 hours, the plate was removed from incubators and equilibrated at room temperature for 15 minutes. Prepare the HiBit reagent (Promega, N3040) by mixing 10 mL of Nano-Glo®-HiBiT Lytic Buffer with 200 μL of Nano-Glo®-HiBiT Lytic Substrate and 100 μL of LgBiT Protein. Added 20 μL of HiBit reagent into each well of the cell plate and spun the plates at room temperature at 1,000 RPM for 1 minute.
The degradation activity was calculated using the following formula:
as §1

T2 sequence (P01116 1-188 isoform P01116-2 G12V): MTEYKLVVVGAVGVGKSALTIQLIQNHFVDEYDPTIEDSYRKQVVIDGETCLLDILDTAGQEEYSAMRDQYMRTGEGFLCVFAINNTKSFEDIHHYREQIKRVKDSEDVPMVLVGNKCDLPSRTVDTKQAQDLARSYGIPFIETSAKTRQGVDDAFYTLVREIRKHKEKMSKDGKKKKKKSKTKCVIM

| Compound | DC50 [nM] |
| --- | --- |
| C#Cc1c(F)ccc2cc(O)cc(-c3ncc4c(N5CCC[C@@](C)(O)C5)nc(OC[C@@]56CCCN5[C@H](COC(=O)N5CCC(N7CCC(c8cccc9c8n(C)c(=O)n9C8CCC(=O)NC8=O)CC7)CC5)CC6)nc4c3F)c12 (stereo partly drawn) [Compound 148] | > 100 |
| C[C@H]1CN(CCOCCOCCOCCOc2ccc3c(c2)n(C)c(=O)n3C2CCC(=O)NC2=O)CCCN1c1nccc(-c2noc([C@@]3(C)CCCc4sc(N)c(C#N)c43)n2)n1 (stereo partly drawn) [Compound 200, (4S)-2-amino-4-(3-(2-((2S)-4-(2-(2-(2-(2-((1-(2,6-dioxopiperidin-3-yl)-3-methyl-2-oxo-2,3-dihydro-1H-benzo[d]imidazol-5-yl)oxy)ethoxy)ethoxy)ethoxy)ethyl)-2-methyl-1,4-diazepan-1-yl)pyrimidin-4-yl)-1,2,4-oxadiazol-5-yl)-4-methyl-4,5,6,7-tetrahydrobenzo[b]thiophene-3-carbonitrile] | > 100 |
| C[C@H]1CN(CCOCCOCCOc2ccc3c(c2)n(C)c(=O)n3C2CCC(=O)NC2=O)CCCN1c1nccc(-c2noc([C@@]3(C)CCCc4sc(N)c(C#N)c43)n2)n1 (stereo partly drawn) [Compound 202, (4S)-2-amino-4-(3-{2-[(2S)-4-{2-[2-(2-{[1-(2,6-dioxopiperidin-3-yl)-3-methyl-2-oxo-1,3-benzodiazol-5-yl]oxy}ethoxy)ethoxy]ethyl}-2-methyl-1,4-diazepan-1-yl]pyrimidin-4-yl}-1,2,4-oxadiazol-5-yl)-4-methyl-6,7-dihydro-5H-1-benzothiophene-3-carbonitrile] | > 100 |
| C[C@H]1CN(CCOCCOc2ccc3c(c2)n(C)c(=O)n3C2CCC(=O)NC2=O)CCCN1c1nccc(-c2noc([C@]3(C)CCCc4sc(N)c(C#N)c43)n2)n1 (stereo partly drawn) [Compound 216] | > 100 |
| C[C@H]1CN(CCOCCOCCOc2ccc3c(c2)n(C)c(=O)n3C2CCC(=O)NC2=O)CCCN1c1nccc(-c2noc([C@]3(C)CCCc4sc(N)c(C#N)c43)n2)n1 (stereo partly drawn) [Compound 217] | > 100 |
| C[C@H]1CN(CCOCCOCCOCCOc2cccc3c2n(C)c(=O)n3C2CCC(=O)NC2=O)CCCN1c1nccc(-c2noc([C@@]3(C)CCCc4sc(N)c(C#N)c43)n2)n1 (stereo partly drawn) [Compound 219] | > 100 |
